One block for each molecule: values may come before it.
How the values were obtained:
H9C2 cells [1] = assay: Protective effect on heart cells against t-BHP (LDH release); type: cell-based; conditions: H9C2, t-BHP 400 μM, 2 hours, read-out: EC50 (μM), Cell Protection Effect against t-BHP in Heart Cells
Outline: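 H9C2 cells (1.5×10^4/well, cultured 24 h) were pretreated 15–20 min with compound at 0.01–30 μM final, then exposed 2 h to 400 μM t-BHP. LDH in supernatant was measured colorimetrically at 490 nm after 30 min room-temperature reaction; EC50 derived from protection.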

PC-12 cells = assay: Cell death protective effect in adrenal cells against Erastin, glutamate and RSL3 (LDH); type: cell-based, rat; conditions: 24 hours
Description: (§1) In order to identify the protective effect on adrenal cells, PC-12 cells were divided into 96-well plates by 1×10^4 and cultured for 18 to 24 hours. The compounds of Examples were diluted to final concentrations of 0.1 and 1.0 μM in Erastin, 0.01 and 0.1 in glutamate, and 0.3 and 3.0 μM in RSL3, treated in each well, and incubated for 15 to 20 minutes. Erastin, glutamate, and RSL3 were treated to have final concentrations of 1 μM, 10 mM, and 0.3 μM, respectively, and cultured for 24 hours. In order to identify the protective effect of each compound, the degree of LDH extracellular secretion was measured using cytotoxicity LDH assay kit [Dojindo; CK12]. Briefly, at the time when the treatment of the cells with Erastin, glutamate, and RSL3 for 24 hours is completed, the supernatants containing the cells are taken by 70 μL and transferred to a new 96-well plate. The assay buffer included in the kit is added in an amount of 70 μL/well (the same amount as the sample) thereto, and then the plate is wrapped with a foil and the reaction is performed at room temperature for 15 minutes. After observing the changed color of the sample, the stop solution was added in an amount of 35 µL/well thereto, and then the 0 inhibition value was calculated by measuring the absorbance value at a wavelength of 490 nm using an iD3 spectrophotometer.

H9C2 cells [2] = assay: Cell death protective effect in cardiac myocytes against Erastin, glutamate and RSL3 (LDH); type: cell-based, rat; conditions: 24 hours
Description: as §1, with “on cardiac” for “on adrenal”, “cells, H9C2” for “cells, PC-12”, “and 1 μM,” for “and 1.0 μM in Erastin, 0.01 and 0.1 in glutamate, and 0.3 and 3.0 μM in RSL3,”, “μM, 25” for “μM, 10”, “and 0.5” for “and 0.3”, “minutes.” for “minutes. After observing the changed color of the sample, the stop solution was added in an amount of 35 µL/well thereto, and then the 0 inhibition value was calculated by measuring the absorbance value at a wavelength of 490 nm using an iD3 spectrophotometer.”

NRK-49F cells = assay: Cell death protective effect in renal fibroblasts against Erastin, glutamate and RSL3 (LDH); type: cell-based, rat; conditions: 24 hours
Description: In order to identify the protective effect on renal fibroblasts, NRK-49F cells were divided into 96-well plates by 1×10^4 and cultured for 18 to 24 hours. The compounds of Examples were diluted to final concentrations of 0.1 and 1 μM, treated in each well, and incubated for 15 to 20 minutes. Erastin, glutamate, and RSL3 were treated to have final concentrations of 3 μM, 75 mM, and 3 μM, respectively, and cultured for 24 hours. In order to identify the protective effect of each compound, the degree of LDH extracellular secretion was measured using cytotoxicity LDH assay kit [Dojindo; CK12]. Briefly, at the time when the treatment of the cells with Erastin, glutamate, and RSL3 for 24 hours is completed, the supernatants containing the cells are taken by 70 μl and transferred to a new 96-well plate. The assay buffer included in the kit is added in an amount of 70 μL/well (the same amount as the sample) thereto, and then the plate is wrapped with a foil and the reaction is performed at room temperature for 15 minutes.

ARPE-19 cells = assay: Cell death protective effect in retinal epithelial cells against Erastin and RSL3 (LDH); type: cell-based, human; conditions: 24 hours
Description: In order to identify the protective effect on retinal epithelial cells, ARPE-19 cells were divided into 96-well plates by 1×10^4 and cultured for 18 to 24 hours. The compounds of Examples were diluted to final concentrations of 0.03 and 0.3 μM, treated in each well, and incubated for 20 minutes. Erastin, and RSL3 were treated to have final concentrations of 10 μM, and 0.3 μM, respectively, and cultured for 24 hours. In order to identify the protective effect of each compound, the degree of LDH extracellular secretion was measured using cytotoxicity LDH assay kit [Dojindo; CK12]. Briefly, at the time when the treatment of the cells with Erastin, and RSL3 for 24 hours is completed, the supernatants containing the cells are taken by 70 μL and transferred to a new 96-well plate. The assay buffer included in the kit is added in an amount of 70 μL/well (the same amount as the sample) thereto, and then the plate is wrapped with a foil and the reaction is performed at room temperature for 15 minutes.

[3] = PC-12, Erastin 1 μM, compound 0.1 μM
[4] = PC-12, Erastin 1 μM, compound 1.0 μM
[5] = PC-12, Glutamate 10 mM, compound 0.01 μM
[6] = PC-12, Glutamate 10 mM, compound 0.1 μM
[7] = PC-12, RSL3 0.3 μM, compound 0.3 μM
[8] = PC-12, RSL3 0.3 μM, compound 3.0 μM
[9] = H9C2, Erastin 1 μM, compound 0.1 μM
[10] = H9C2, Erastin 1 μM, compound 1.0 μM
[11] = H9C2, Glutamate 25 mM, compound 0.1 μM
[12] = H9C2, Glutamate 25 mM, compound 1.0 μM
[13] = H9C2, RSL3 0.5 μM, compound 0.1 μM
[14] = H9C2, RSL3 0.5 μM, compound 1.0 μM
[15] = Glutamate 75 mM, compound 0.1 μM
[16] = Glutamate 75 mM, compound 1.0 μM
[17] = ARPE-19, Erastin 10 μM, compound 0.03 μM
[18] = ARPE-19, Erastin 10 μM, compound 0.3 μM
[19] = ARPE-19, RSL3 0.3 μM, compound 0.03 μM
[20] = ARPE-19, RSL3 0.3 μM, compound 0.3 μM

EC50 (H9C2 cells [1]): ≤ 0.3 µM
SMILES: COCCOCc1cc(NCc2ccncc2)c2[nH]c(-c3ccccc3)cc2c1 [Example 45, 5-(2-methoxyethoxymethyl)-2-phenyl-N-(4-pyridylmethyl)-1H-indol-7-amine]
inhibition (%) (PC-12 cells; [3]): 100%
inhibition (%) (PC-12 cells; [4]): 100%
inhibition (%) (PC-12 cells; [5]): 57%
inhibition (%) (PC-12 cells; [6]): 100%
inhibition (%) (PC-12 cells; [7]): 100%
inhibition (%) (PC-12 cells; [8]): 100%
inhibition (%) (H9C2 cells [2]; [9]): 100%
inhibition (%) (H9C2 cells [2]; [10]): 100%
inhibition (%) (H9C2 cells [2]; [11]): 98%
inhibition (%) (H9C2 cells [2]; [12]): 96%
inhibition (%) (H9C2 cells [2]; [13]): 99%
inhibition (%) (H9C2 cells [2]; [14]): 97%
inhibition (%) (NRK-49F cells; Erastin 3 μM, compound 0.1 μM): 99%
inhibition (%) (NRK-49F cells; Erastin 3 μM, compound 1.0 μM): 98%
inhibition (%) (NRK-49F cells; [15]): 100%
inhibition (%) (NRK-49F cells; [16]): 98%
inhibition (%) (NRK-49F cells; RSL3 3 μM, compound 0.1 μM): 99%
inhibition (%) (NRK-49F cells; RSL3 3 μM, compound 1.0 μM): 98%
inhibition (%) (ARPE-19 cells; [17]): 100%
inhibition (%) (ARPE-19 cells; [18]): 100%
inhibition (%) (ARPE-19 cells; [19]): 100%
inhibition (%) (ARPE-19 cells; [20]): 100%

EC50 (H9C2 cells [1]): > 1 µM
SMILES: COCCOCc1cc(NC2CCOCC2)c2[nH]cc(C)c2c1 [Example 50, 5-(2-methoxyethoxymethyl)-3-methyl-N-tetrahydropyran-4-yl-1H-indol-7-amine]
inhibition (%) (PC-12 cells; [3]): 41%
inhibition (%) (PC-12 cells; [4]): 68%
inhibition (%) (PC-12 cells; [5]): 16%
inhibition (%) (PC-12 cells; [6]): 25%
inhibition (%) (PC-12 cells; [7]): 0%
inhibition (%) (PC-12 cells; [8]): 100%
inhibition (%) (H9C2 cells [2]; [9]): 16%
inhibition (%) (H9C2 cells [2]; [10]): 18%
inhibition (%) (H9C2 cells [2]; [11]): 0%
inhibition (%) (H9C2 cells [2]; [12]): 49%
inhibition (%) (H9C2 cells [2]; [13]): 7%
inhibition (%) (H9C2 cells [2]; [14]): 4%
inhibition (%) (NRK-49F cells; Erastin 3 μM, compound 0.1 μM): 3%
inhibition (%) (NRK-49F cells; Erastin 3 μM, compound 1.0 μM): 99%
inhibition (%) (NRK-49F cells; [15]): 4%
inhibition (%) (NRK-49F cells; [16]): 73%
inhibition (%) (NRK-49F cells; RSL3 3 μM, compound 0.1 μM): 16%
inhibition (%) (NRK-49F cells; RSL3 3 μM, compound 1.0 μM): 18%
inhibition (%) (ARPE-19 cells; [17]): 19%
inhibition (%) (ARPE-19 cells; [18]): 86%
inhibition (%) (ARPE-19 cells; [19]): 4%
inhibition (%) (ARPE-19 cells; [20]): 45%

EC50 (H9C2 cells [1]): ≤ 0.3 µM
SMILES: COCCOCc1cc(NC2CCNCC2)c2[nH]c(-c3ccccc3)cc2c1 [Example 64, 5-((2-methoxyethoxy)methyl)-2-phenyl-N-(piperidin-4-yl)-1H-indol-7-amine]
inhibition (%) (PC-12 cells; [3]): 100%
inhibition (%) (PC-12 cells; [4]): 100%
inhibition (%) (PC-12 cells; [5]): 39%
inhibition (%) (PC-12 cells; [6]): 97%
inhibition (%) (PC-12 cells; [7]): 78%
inhibition (%) (PC-12 cells; [8]): 100%
inhibition (%) (H9C2 cells [2]; [9]): 100%
inhibition (%) (H9C2 cells [2]; [10]): 100%
inhibition (%) (H9C2 cells [2]; [11]): 97%
inhibition (%) (H9C2 cells [2]; [12]): 97%
inhibition (%) (H9C2 cells [2]; [13]): 90%
inhibition (%) (H9C2 cells [2]; [14]): 95%
inhibition (%) (NRK-49F cells; Erastin 3 μM, compound 0.1 μM): 100%
inhibition (%) (NRK-49F cells; Erastin 3 μM, compound 1.0 μM): 100%
inhibition (%) (NRK-49F cells; [15]): 7%
inhibition (%) (NRK-49F cells; [16]): 99%
inhibition (%) (NRK-49F cells; RSL3 3 μM, compound 0.1 μM): 70%
inhibition (%) (NRK-49F cells; RSL3 3 μM, compound 1.0 μM): 100%
inhibition (%) (ARPE-19 cells; [17]): 100%
inhibition (%) (ARPE-19 cells; [18]): 100%
inhibition (%) (ARPE-19 cells; [19]): 67%
inhibition (%) (ARPE-19 cells; [20]): 100%

From US20250122155A1, “NOVEL INDOLE DERIVATIVE, PHARMACEUTICAL COMPOSITION COMPRISING SAME, AND USE THEREOF” (MITOIMMUNE THERAPEUTICS INC., priority 2021, published 2025)
